In patent publication US20250333405A1, “ANTAGONISTS OF GPR39 PROTEIN” (VASOCARDEA, INC., priority 2024, published 2025):
pKi: −log10 of the molar value. Where a name gives a salt, the structure may show the parent alone.

Molecular target: T1, human GPR39 receptor (Homo sapiens, UniProt O43194)
T1 construct: PC3 Cells, Expressing the Endogenous Human GPR39 Receptor; endogenous in cells; host or cells: PC3 (human prostate adenocarcinoma) cells
T1 sequence (O43194 1-453): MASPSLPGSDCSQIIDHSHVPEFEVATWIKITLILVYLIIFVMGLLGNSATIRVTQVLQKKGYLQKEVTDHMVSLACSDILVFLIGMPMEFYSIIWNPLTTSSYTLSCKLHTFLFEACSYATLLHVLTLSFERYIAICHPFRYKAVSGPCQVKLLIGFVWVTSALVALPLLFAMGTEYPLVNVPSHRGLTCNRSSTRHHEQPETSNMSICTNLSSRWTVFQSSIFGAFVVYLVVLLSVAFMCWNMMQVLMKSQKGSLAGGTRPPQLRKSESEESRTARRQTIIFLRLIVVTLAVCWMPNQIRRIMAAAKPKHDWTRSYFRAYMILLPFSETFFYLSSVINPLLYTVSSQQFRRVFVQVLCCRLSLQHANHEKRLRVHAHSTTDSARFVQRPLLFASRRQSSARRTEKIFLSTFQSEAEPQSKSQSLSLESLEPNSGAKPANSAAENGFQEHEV
Assay: Intracellular calcium response (FLIPR, Calcium-6) in PC3 cells, antagonism of agonist C3 (TC-G 1008) at EC90
Type: cell-based
Conditions: functional pKi (-Log10Ki) by modified Cheng-Prusoff from IC50; PC3 cells endogenously expressing human GPR39; 30 μM ZnCl2; agonist C3 (TC-G 1008) at EC90 1.5 μM
Procedure: Measurement of Intracellular Calcium Response in PC3 Cells, Expressing the Endogenous Human GPR39 Receptor
Human prostate adenocarcinoma (PC3) cells endogenously expressing human GPR39 receptor were seeded into black walls clear-base 384-well plates at a density of 7,500 cells per well in DMEM (Low Glucose) supplemented with 10% heat-inactivated foetal bovine serum and 1% of Pen/Strep and grown overnight at 37° C., 5% CO2. After washing with assay buffer (20 mM HEPES, 137 mM NaCl, 5.4 mM KCl, 10 mM glucose, 0.8 mM MgSO4, 1.3 mM CaCl2), 0.3 mM Na2HPO4, 0.4 mM KH2PO4 4.2 mM NaHCO3, pH 7.4), cells were incubated with Calcium-6 probe (Molecular Devices) at 37° C. for 2 h and then equilibrated at RT for 30 minutes on metal block. The fluorescence was measured in real time by Fluorometric Imaging Plate Reader (FLIPR TETRA, Molecular Devices) (excitation wavelength at 470-495 nm, emission wavelength at 515-575 nm). Compounds of invention were serially diluted in neat DMSO at 1000 fold concentrations and plated into 384-well plates and then 200-fold diluted in assay buffer containing 150 μM ZnCl2 (30 μM final concentration) and 1.1% DMSO (0.32% final concentration). A dual addition FLIPR protocol was used which included a first addition of compounds 200-fold diluted in Assay Buffer containing 150 μM ZnCl2 and 1.1% DMSO and then after 10 minutes a second addition of a submaximal concentration of the hGPR39 receptor agonist, C3 (Tocris, TC-G 1008) at EC90 (concentration producing 90% of the maximal response) value of 1.5 μM. Fluorescence was monitored throughout the run assay. The peak of Ca2+ stimulation (baseline subtracted) was expressed as percentage of the maximal inhibition of the EC90 C3 response and was plotted versus the concentration of test compound. Curve fitting and IC50 estimations are carried out using a four-parameter logistic model using XLfit Software. […] An fpKi less than 5.2 is reported as “+/−”. An fpKi ranging from 5.2 to 5.9 is reported as “+”. An fpKi from 6.0 to 6.5 is reported as “++”. An fpKi from 6.6 to 7.2 is reported as “+++”. An fpKi equal to or greater than 7.3 is reported as “++++”.

| Structure (SMILES) | fpKi activity |
| --- | --- |
| O=C(Nc1ccc(-c2nnc(N3CCC(F)(F)CC3)o2)c(N2CCCC2)c1)C1CC1 [Example 100, N-[4-[5-(4,4-difluoropiperidin-1-yl)-1,3,4-oxadiazol-2-yl]-3-pyrrolidin-1-ylphenyl]cyclopropanecarboxamide] | + + |

Same assay, conditions: functional pKi (-Log10Ki) by modified Cheng-Prusoff from IC50; PC3 cells endogenously expressing human GPR39; 30 μM ZnCl2; agonist C3 (TC-G 1008) at EC90 1.5 μM; read-out: fpKi activity

| Structure (SMILES) | pKi |
| --- | --- |
| CN1CCN(C(=O)c2ccc(NC(=O)C3CC3)cc2C2CCCC2)C(c2ccccc2)C1 (stereo not drawn) [Example 91, N-[3-cyclopentyl-4-(4-methyl-2-phenylpiperazine-1-carbonyl)phenyl]cyclopropanecarboxamide] | 6.00 to 6.50 |
| CC(=O)Nc1ccc(-c2nccc(N3CCCC3)n2)c(N2CCCC2)c1 [Example 101, N-[3-pyrrolidin-1-yl-4-(4-pyrrolidin-1-ylpyrimidin-2-yl)phenyl]acetamide] | < 5.20 |
| Cc1nnc(-c2ccc(C(=O)N3CCC(C(F)(F)F)CC3)c(-c3cccc(C(C)C)n3)c2)[nH]1 [Example 70, [2-(6-isopropyl-2-pyridyl)-4-(5-methyl-4H-1,2,4-triazol-3-yl)phenyl]-[4-(trifluoromethyl)-1-piperidyl]methanone] | ≥ 7.30 |
| CC1CN(C(=O)c2ccc(NC(=O)C3CC3)cc2N2CCCC2)CC(C)S1(=O)=O (stereo not drawn) [Example 5, N-[4-(2,6-dimethyl-1,1-dioxo-1,4-thiazinane-4-carbonyl)-3-pyrrolidin-1-ylphenyl]cyclopropanecarboxamide] | < 5.20 |
| CN1CCN(C(=O)c2ccc(NC(=O)C3CC3)cc2C2=CCCC2)C(c2ccccc2)C1 (stereo not drawn) [Example 89, N-[3-(cyclopenten-1-yl)-4-(4-methyl-2-phenylpiperazine-1-carbonyl)phenyl]cyclopropanecarboxamide] | 6.60 to 7.20 |
| Cc1nnc(-c2ccc(C(=O)N3CCC(F)(F)CC3)c(-n3ccc(C(C)(C)C)n3)c2)[nH]1 [Example 122, [2-(3-tert-butylpyrazol-1-yl)-4-(5-methyl-4H-1,2,4-triazol-3-yl)phenyl]-(4,4-difluoropiperidin-1-yl)methanone] | ≥ 7.30 |
| Cc1nnc(-c2ccc(C(=O)N3CCC(OC(F)(F)F)CC3)c(-c3ccn(C(C)C)n3)c2)[nH]1 [Example 56, 1-[4-(5-methyl-4H-1,2,4-triazol-3-yl)-2-[1-(propan-2-yl)-1H-pyrazol-3-yl]benzoyl]-4-(trifluoromethoxy) piperidine] | ≥ 7.30 |
| O=C(Nc1ccc(C(=O)N2CCS(=O)(=O)CC2)c(N2CCCC2=O)c1)C1CC1 [Example 123, N-[4-(1,1-dioxo-1,4-thiazinane-4-carbonyl)-3-(2-oxopyrrolidin-1-yl)phenyl]cyclopropanecarboxamide] | < 5.20 |
| Cc1nnc(-c2ccc(C(=O)N3CCC(F)(F)CC3)c(-c3cccc(C(F)(F)F)n3)c2)[nH]1 [Example 75, (4,4-difluoropiperidin-1-yl)-[4-(5-methyl-4H-1,2,4-triazol-3-yl)-2-[6-(trifluoromethyl)pyridin-2-yl]phenyl]methanone] | ≥ 7.30 |
| Cc1nnc(-c2ccc(C(=O)N3CCC(C(F)(F)F)CC3)c(-c3ccn(C(C)C)n3)c2)[nH]1 [Example 48, [4-(5-methyl-4H-1,2,4-triazol-3-yl)-2-(1-propan-2-ylpyrazol-3-yl)phenyl]-[4-(trifluoromethyl)piperidin-1-yl]methanone] | ≥ 7.30 |
| Cc1nnc(-c2ccc(C(=O)N3CCC(F)(F)CC3)c(-c3ccn(C(C)C)n3)c2)[nH]1 [Example 51, (4,4-difluoropiperidin-1-yl)-[4-(5-methyl-4H-1,2,4-triazol-3-yl)-2-(1-propan-2-ylpyrazol-3-yl)phenyl]methanone] | ≥ 7.30 |
| Cc1nnc(-c2ccc(C(=O)N3CCC(F)(F)CC3)c(-c3nccc(C(F)(F)F)n3)c2)[nH]1 [Example 77, (4,4-difluoro-1-piperidyl)-[4-(5-methyl-4H-1,2,4-triazol-3-yl)-2-[4-(trifluoromethyl)pyrimidin-2-yl]phenyl]methanone] | ≥ 7.30 |
| CN1CCN(C(=O)c2ccc(NC(=O)C3CC3)cc2N2CCCC2=O)C(c2ccccc2)C1 (stereo not drawn) [Example 124, N-[4-(4-methyl-2-phenylpiperazine-1-carbonyl)-3-(2-oxopyrrolidin-1-yl)phenyl]cyclopropanecarboxamide] | < 5.20 |
| Cc1nnc(-c2ccc(C(=O)N3CCC(C)(F)CC3)c(-c3ccn(C(C)C)n3)c2)[nH]1 [Example 43, (4-fluoro-4-methylpiperidin-1-yl)-[4-(5-methyl-4H-1,2,4-triazol-3-yl)-2-(1-propan-2-ylpyrazol-3-yl)phenyl]methanone] | ≥ 7.30 |
| Cc1cc(C(F)(F)F)nc(-c2cc(-c3nnc(C)[nH]3)ccc2C(=O)N2CCC(C(F)(F)F)CC2)n1 [Example 68, [4-(5-methyl-4H-1,2,4-triazol-3-yl)-2-[4-methyl-6-(trifluoromethyl)pyrimidin-2-yl]phenyl]-[4-(trifluoromethyl)-1-piperidyl]methanone] | ≥ 7.30 |
| CN(C1CCN(C(=O)c2ccc(NC(=O)C3CC3)cc2N2CCCC2)CC1)S(C)(=O)=O [Example 104, N-[4-[4-[methyl(methylsulfonyl)amino]piperidine-1-carbonyl]-3-pyrrolidin-1-ylphenyl]cyclopropanecarboxamide] | 5.20 to 5.90 |
| O=C(Nc1ccc(C(=O)N2CCS(=O)(=O)CC2)c(-c2cnc(C(F)(F)F)s2)c1)C1CC1 [Example 27, N-[4-(1,1-dioxo-1,4-thiazinane-4-carbonyl)-3-[2-(trifluoromethyl)-1,3-thiazol-5-yl]phenyl]cyclopropanecarboxamide] | 5.20 to 5.90 |
| Cc1nnc(-c2ccc(C(=O)N3CCC(C(F)(F)F)CC3)c(-c3ccn(CC(C)C)n3)c2)[nH]1 [Example 45, [2-[1-(2-methylpropyl)pyrazol-3-yl]-4-(5-methyl-4H-1,2,4-triazol-3-yl)phenyl]-[4-(trifluoromethyl)piperidin-1-yl]methanone] | ≥ 7.30 |
| Cc1nnc(-c2ccc(C(=O)N3CCC(C(F)(F)F)CC3)c(-n3ccc(C4CC4)n3)c2)[nH]1 [Example 121, [2-(3-cyclopropylpyrazol-1-yl)-4-(5-methyl-4H-1,2,4-triazol-3-yl)phenyl]-[4-(trifluoromethyl)piperidin-1-yl]methanone] | ≥ 7.30 |
| Cc1cc(Cl)cc(C2CN(C)CCN2C(=O)c2ccc(NC(=O)C3CC3)cc2N2CCCC2)c1 (single isomer, unassigned) [Example 110a, N-[4-[2S or 2R-(3-chloro-5-methylphenyl)-4-methylpiperazine-1-carbonyl]-3-pyrrolidin-1-ylphenyl]cyclopropanecarboxamide hydrochloride] | ≥ 7.30 |
| Cc1nnc(-c2ccc(C(=O)N3CCN(C)CC3c3ccccc3)c(N3CCC(C(C)C)C3)c2)[nH]1 (single isomer, unassigned) [Example 125c, (4-methyl-2-phenylpiperazin-1-yl)-[4-(5-methyl-4H-1,2,4-triazol-3-yl)-2-(3-propan-2-ylpyrrolidin-1-yl)phenyl]methanone] | 6.60 to 7.20 |
| COC1(C)CCN(C(=O)c2ccc(-c3nnc(C)[nH]3)cc2-c2ccn(C(C)(C)C)n2)CC1 [Example 66, [2-(1-tert-butylpyrazol-3-yl)-4-(5-methyl-4H-1,2,4-triazol-3-yl)phenyl]-(4-methoxy-4-methyl-1-piperidyl)methanone] | ≥ 7.30 |
| Cc1nnc(-c2ccc(C(=O)N3CCC(F)(F)CC3)c(-c3nc(C(F)(F)F)cs3)c2)[nH]1 [Example 76, (4,4-difluoro-1-piperidyl)-[4-(5-methyl-4H-1,2,4-triazol-3-yl)-2-[4-(trifluoromethyl)thiazol-2-yl]phenyl]methanone] | ≥ 7.30 |
